Experimental data taken from US20240246967A1, “AXL COMPOUNDS” (ARCUS BIOSCIENCES, INC., priority 2021, published 2024).
pIC50: −log10 of the molar value.

What was measured:
human MER = target: T1, human MER (Homo sapiens, UniProt Q12866); experiment: HTRF KinEASE-TK biochemical potency assay, MER; settings: 1 nM MER, 700 μM ATP, 800 nM TK Substrate-biotin
T1 construct: purchased Invitrogen
T1 sequence (Q12866 21-999): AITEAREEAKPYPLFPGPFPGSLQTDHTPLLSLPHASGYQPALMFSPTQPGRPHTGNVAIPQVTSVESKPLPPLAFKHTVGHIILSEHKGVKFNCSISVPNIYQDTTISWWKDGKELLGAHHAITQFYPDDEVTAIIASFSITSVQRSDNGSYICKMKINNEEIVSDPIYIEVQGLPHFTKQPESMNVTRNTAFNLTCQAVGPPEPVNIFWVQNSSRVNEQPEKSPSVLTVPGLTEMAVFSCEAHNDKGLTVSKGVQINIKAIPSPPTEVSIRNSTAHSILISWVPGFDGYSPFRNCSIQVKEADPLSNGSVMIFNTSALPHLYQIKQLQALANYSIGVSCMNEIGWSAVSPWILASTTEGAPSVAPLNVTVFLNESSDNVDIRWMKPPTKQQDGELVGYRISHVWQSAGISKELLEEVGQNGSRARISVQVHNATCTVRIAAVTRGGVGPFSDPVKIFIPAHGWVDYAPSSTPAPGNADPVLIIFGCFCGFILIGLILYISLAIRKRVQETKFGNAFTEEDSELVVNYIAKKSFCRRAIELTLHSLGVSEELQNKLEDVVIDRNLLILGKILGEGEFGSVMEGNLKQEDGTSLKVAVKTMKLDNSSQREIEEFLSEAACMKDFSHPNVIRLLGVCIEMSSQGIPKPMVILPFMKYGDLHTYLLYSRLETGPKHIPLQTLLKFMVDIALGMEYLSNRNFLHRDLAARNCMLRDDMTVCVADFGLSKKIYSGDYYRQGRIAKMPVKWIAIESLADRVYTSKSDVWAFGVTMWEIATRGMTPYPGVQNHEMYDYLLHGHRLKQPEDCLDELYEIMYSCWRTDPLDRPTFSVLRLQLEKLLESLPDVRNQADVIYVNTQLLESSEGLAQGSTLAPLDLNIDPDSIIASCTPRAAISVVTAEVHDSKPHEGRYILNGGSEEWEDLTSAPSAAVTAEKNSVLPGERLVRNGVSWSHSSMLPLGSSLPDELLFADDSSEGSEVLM
Method in brief: (§1)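 HTRF 665/620 nm read-out after streptavidin-XL665/anti-phosphotyrosine cryptate detection (1 h RT). Final reaction: 5 nM AXL or 1 nM TYRO3/MER, 800 nM TK substrate-biotin, 700 μM ATP, pH 7.4 HEPES buffer, 1% DMSO, 2 h RT, after 1 h enzyme–compound preincubation.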

human TYRO3 = target: T2, human TYRO3 (Homo sapiens, UniProt Q06418); experiment: HTRF KinEASE-TK biochemical potency assay, TYRO3; settings: 1 nM TYRO3, 700 μM ATP, 800 nM TK Substrate-biotin
T2 construct: purchased Invitrogen
T2 sequence (Q06418 41-890): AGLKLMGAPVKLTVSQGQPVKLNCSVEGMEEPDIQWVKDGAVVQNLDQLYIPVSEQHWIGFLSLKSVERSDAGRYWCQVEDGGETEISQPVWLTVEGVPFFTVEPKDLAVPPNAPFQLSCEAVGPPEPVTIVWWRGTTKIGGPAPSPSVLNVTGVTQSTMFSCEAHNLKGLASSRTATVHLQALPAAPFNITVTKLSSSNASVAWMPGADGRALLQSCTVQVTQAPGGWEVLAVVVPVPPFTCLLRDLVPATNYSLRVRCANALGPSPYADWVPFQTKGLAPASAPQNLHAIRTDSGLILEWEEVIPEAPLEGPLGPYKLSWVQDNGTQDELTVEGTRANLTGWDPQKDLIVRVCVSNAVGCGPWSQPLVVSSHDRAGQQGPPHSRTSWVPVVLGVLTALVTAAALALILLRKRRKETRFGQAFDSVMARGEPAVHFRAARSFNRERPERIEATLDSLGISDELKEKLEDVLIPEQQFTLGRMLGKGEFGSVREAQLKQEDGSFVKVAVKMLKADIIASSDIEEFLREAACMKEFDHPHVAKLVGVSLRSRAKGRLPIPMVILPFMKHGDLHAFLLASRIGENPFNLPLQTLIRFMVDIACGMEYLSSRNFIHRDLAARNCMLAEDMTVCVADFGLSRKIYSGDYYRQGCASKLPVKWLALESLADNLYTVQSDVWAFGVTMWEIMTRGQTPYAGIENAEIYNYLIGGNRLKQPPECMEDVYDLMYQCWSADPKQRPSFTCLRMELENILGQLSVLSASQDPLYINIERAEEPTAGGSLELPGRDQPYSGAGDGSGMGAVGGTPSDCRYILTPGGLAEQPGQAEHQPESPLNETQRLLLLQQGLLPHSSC
Method in brief: as §1

Row | pIC50 (human MER) | pIC50 (human TYRO3) | SMILES
1 | 6.00 to 7.00 | 6.00 to 7.00 | COc1cc(-c2n[nH]c3ncc(-c4ccc5c(c4)CCC(C)(N4CCC[C@H]4C)CC5)cc23)ccc1S(N)(=O)=O (stereo partly drawn) [Example 87, 2-Methoxy-4-(5-(7-methyl-7-((R)-2-methylpyrrolidin-1-yl)-6,7,8,9-tetrahydro-5H-benzo[7]annulen-2-yl)-1H-pyrazolo[3,4-b]pyridin-3-yl)benzenesulfonamide]
2 | < 6.00 | 6.00 to 7.00 | C[C@@H]1CCCN1C1(C)CCc2ccc(-c3cnc4[nH]nc(-c5ccc(C(=O)NC6CCOCC6)cc5)c4c3)cc2CC1 (stereo partly drawn) [Example 88, 4-(5-(7-Methyl-7-((R)-2-methylpyrrolidin-1-yl)-6,7,8,9-tetrahydro-5H-benzo[7]annulen-2-yl)-1H-pyrazolo[3,4-b]pyridin-3-yl)-N-(tetrahydro-2H-pyran-4-yl)benzamide]
3 | 6.00 to 7.00 | 6.00 to 7.00 | COC1CCN(C(=O)c2ccc(-c3n[nH]c4ncc(-c5ccc6c(c5)CCC(C)(N5CCC[C@H]5C)CC6)cc34)cc2)CC1 (stereo partly drawn) [Example 89, (4-Methoxypiperidin-1-yl)(4-(5-(7-methyl-7-((R)-2-methylpyrrolidin-1-yl)-6,7,8,9-tetrahydro-5H-benzo[7]annulen-2-yl)-1H-pyrazolo[3,4-b]pyridin-3-yl)phenyl)methanone]
4 | < 6.00 | < 6.00 | Cc1cc2c(cc1-c1cnc3[nH]nc(-c4ccc(C(C)(C)O)c(Cl)c4)c3c1)CCC(N1CCC[C@H]1C)CC2 (stereo partly drawn) [Example 90, 2-[2-Chloro-4-(5-{3-methyl-7-[(2R)-2-methylpyrrolidin-1-yl]-6,7,8,9-tetrahydro-5H-benzo[7]annulen-2-yl}-1H-pyrazolo[3,4-b]pyridin-3-yl)phenyl]propan-2-ol]
5 | 6.00 to 7.00 | > 7.00 | NS(=O)(=O)c1ccc(-c2n[nH]c3ncc(-c4ccc5c(c4)CC[C@@H](N4CCCC4)CC5)cc23)cc1Cl [Example 91, (S)-2-Chloro-4-(5-(7-(pyrrolidin-1-yl)-6,7,8,9-tetrahydro-5H-benzo[7]annulen-2-yl)-1H-pyrazolo[3,4-b]pyridin-3-yl)benzenesulfonamide]
6 | 6.00 to 7.00 | 6.00 to 7.00 | NS(=O)(=O)c1ccc(-c2n[nH]c3ncc(-c4ccc5c(c4)CCN(C4CCCC4)CC5)cc23)cc1Cl [Example 92, 2-Chloro-4-(5-(3-cyclopentyl-2,3,4,5-tetrahydro-1H-benzo[d]azepin-7-yl)-1H-pyrazolo[3,4-b]pyridin-3-yl)benzenesulfonamide]
7 | > 7.00 | > 7.00 | C[C@@H]1CCCN1C1(C)CCc2ccc(-c3cnc4[nH]nc(-c5ccc(S(N)(=O)=O)c(Cl)c5)c4c3)cc2CC1 (stereo partly drawn) [Example 93, 2-Chloro-4-(5-(7-methyl-7-((R)-2-methylpyrrolidin-1-yl)-6,7,8,9-tetrahydro-5H-benzo[7]annulen-2-yl)-1H-pyrazolo[3,4-b]pyridin-3-yl)benzenesulfonamide]

The remaining lines, values behind:

Row | SMILES | pIC50 (human MER) | pIC50 (human TYRO3)
8 | NC(=O)c1ccc(-c2n[nH]c3ncc(-c4ccc5c(c4)CCC(N4CCCC4)CC5)cc23)cc1 (stereo not drawn) [Example 78, 4-(5-(7-(Pyrrolidin-1-yl)-6,7,8,9-tetrahydro-5H-benzo[7]annulen-2-yl)-1H-pyrazolo[3,4-b]pyridin-3-yl)benzamide] | 6.00 to 7.00 | > 7.00
9 | Cc1cc(-c2n[nH]c3ncc(-c4ccc5c(c4)CCC(N4CCCC4)CC5)cc23)cc(F)c1C(N)=O (stereo not drawn) [Example 79, 2-Fluoro-6-methyl-4-(5-(7-(pyrrolidin-1-yl)-6,7,8,9-tetrahydro-5H-benzo[7]annulen-2-yl)-1H-pyrazolo[3,4-b]pyridin-3-yl)benzamide] | 6.00 to 7.00 | > 7.00
10 | NC(=O)c1ccc(-c2n[nH]c3ncc(-c4ccc5c(c4)CCC(N4CCCC4)CC5)cc23)cc1C(F)(F)F (stereo not drawn) [Example 80, 4-(5-(7-(Pyrrolidin-1-yl)-6,7,8,9-tetrahydro-5H-benzo[7]annulen-2-yl)-1H-pyrazolo[3,4-b]pyridin-3-yl)-2-(trifluoromethyl)benzamide] | 6.00 to 7.00 | > 7.00
11 | NC(=O)c1ccc(-c2n[nH]c3ncc(-c4ccc5c(c4)CCC(N4CCCC4)CC5)cc23)cc1F (stereo not drawn) [Example 81, 2-Fluoro-4-(5-(7-(pyrrolidin-1-yl)-6,7,8,9-tetrahydro-5H-benzo[7]annulen-2-yl)-1H-pyrazolo[3,4-b]pyridin-3-yl)benzamide] | 6.00 to 7.00 | > 7.00
12 | O=C(c1ccc(-c2n[nH]c3ncc(-c4ccc5c(c4)CC[C@@H](N4CCCC4)CC5)cc23)cc1Cl)N1CCNCC1 [Example 82, (S)-(2-Chloro-4-(5-(7-(pyrrolidin-1-yl)-6,7,8,9-tetrahydro-5H-benzo[7]annulen-2-yl)-1H-pyrazolo[3,4-b]pyridin-3-yl)phenyl)(piperazin-1-yl)methanone] | > 7.00 | > 7.00
13 | Cc1cc(-c2n[nH]c3ncc(-c4ccc5c(c4)CC[C@@H](N4CCCC4)CC5)cc23)cc(F)c1C(N)=O [Example 83, (S)-2-Fluoro-6-methyl-4-(5-(7-(pyrrolidin-1-yl)-6,7,8,9-tetrahydro-5H-benzo[7]annulen-2-yl)-1H-pyrazolo[3,4-b]pyridin-3-yl)benzamide] | > 7.00 | > 7.00
14 | NC(=O)c1ccc(-c2n[nH]c3ncc(-c4ccc5c(c4)CC[C@@H](N4CCCC4)CC5)cc23)cc1Cl [Example 84, (S)-2-Chloro-4-(5-(7-(pyrrolidin-1-yl)-6,7,8,9-tetrahydro-5H-benzo[7]annulen-2-yl)-1H-pyrazolo[3,4-b]pyridin-3-yl)benzamide] | > 7.00 | > 7.00
15 | O=C(c1ccc(-c2n[nH]c3ncc(-c4ccc5c(c4)CC[C@@H](N4CCCC4)CC5)cc23)cc1Cl)N1CCC(O)CC1 [Example 85, (S)-(2-Chloro-4-(5-(7-(pyrrolidin-1-yl)-6,7,8,9-tetrahydro-5H-benzo[7]annulen-2-yl)-1H-pyrazolo[3,4-b]pyridin-3-yl)phenyl)(4-hydroxypiperidin-1-yl)methanone] | 6.00 to 7.00 | > 7.00
